Data from PMC10968680, “FHND004 inhibits malignant proliferation of multiple myeloma by targeting PDZ-binding kinase in MAPK pathway” (Aging (Albany NY), 2024).
Residue numbers refer to the chain shown, from its start.

Legend:
PDZ-binding kinase (PBK) [1] = target: T1, PDZ-binding kinase (PBK) (Homo sapiens, UniProt Q96KB5, D125A/N124A); assay: microscale thermophoresis (MST)
T1 sequence (Q96KB5 1-322 N124A/D125A): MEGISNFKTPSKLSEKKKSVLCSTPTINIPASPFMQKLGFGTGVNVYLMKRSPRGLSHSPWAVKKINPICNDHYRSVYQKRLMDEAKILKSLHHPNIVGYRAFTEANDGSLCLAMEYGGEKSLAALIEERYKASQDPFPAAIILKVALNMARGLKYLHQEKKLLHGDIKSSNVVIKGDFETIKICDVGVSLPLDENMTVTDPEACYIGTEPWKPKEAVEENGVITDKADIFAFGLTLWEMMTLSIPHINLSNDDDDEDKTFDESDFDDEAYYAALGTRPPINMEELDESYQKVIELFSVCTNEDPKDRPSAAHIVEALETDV

PDZ-binding kinase (PBK) [2] = target: T2, PDZ-binding kinase (PBK) (Homo sapiens, UniProt Q96KB5); assay: microscale thermophoresis (MST) with RED-NHS labelled purified PBK
T2 sequence (Q96KB5 1-322): T1 sequence (Q96KB5 1-322 N124A/D125A) with A124N, A125D

Kd (PDZ-binding kinase (PBK) [1]): 99.5 µM
Kd (PDZ-binding kinase (PBK) [2]): 3.1 µM
Compound: C=CC(=O)Nc1cc(Nc2nccc(-c3cn4c5c(cccc35)CCC4)n2)c(OC)cc1N(C)CCN(C)C [FHND004]
